{
  "source": "patent US11098038B2",
  "about": "“Imidazole-based anticancer agents and derivatives thereof, and methods of making and using same” (The University of Toledo, priority 2017, dated 2021)",
  "type_in_all_cases": "cell-based",
  "key": {"UACC-62": {"test_system": "UACC-62", "assay": "NCI 60 screen, UACC-62", "details": "Homo sapiens, Melanoma", "procedure": "(§1) The compounds synthesized were tested at the National Cancer Institute (NCI) for anti-proliferative activity in the 60 human tumor cell line assay."}, "SN12C": {"test_system": "SN12C", "assay": "NCI 60 screen, SN12C", "details": "Homo sapiens, Renal", "procedure": "as §1"}, "MOLT-4": {"test_system": "MOLT-4", "assay": "NCI 60 screen, MOLT-4", "details": "Homo sapiens, Leukemia", "procedure": "as §1"}, "SW-620": {"test_system": "SW-620", "assay": "NCI 60 screen, SW-620", "details": "Homo sapiens, Colon", "procedure": "as §1"}, "T-47D": {"test_system": "T-47D", "assay": "NCI 60 screen, T-47D", "details": "Homo sapiens, T47D, Breast", "procedure": "as §1"}, "NCI-322M": {"test_system": "NCI-322M", "assay": "NCI 60 screen, NCI-322M", "details": "Homo sapiens, Non-Small Cell Lung", "procedure": "as §1"}, "UO-31": {"test_system": "UO-31", "assay": "NCI 60 screen, UO-31", "details": "Homo sapiens, Renal", "procedure": "as §1"}, "ACHN": {"test_system": "ACHN", "assay": "NCI 60 screen, ACHN", "details": "Homo sapiens, Renal", "procedure": "as §1"}, "BT-549": {"test_system": "BT-549", "assay": "NCI 60 screen, BT-549", "details": "Homo sapiens, Breast", "procedure": "as §1"}, "HOP-62": {"test_system": "HOP-62", "assay": "NCI 60 screen, HOP-62", "details": "Homo sapiens, Non-Small Cell Lung", "procedure": "as §1"}, "OVCAR-4": {"test_system": "OVCAR-4", "assay": "NCI 60 screen, OVCAR-4", "details": "Homo sapiens, Ovarian", "procedure": "as §1"}, "SK-MEL-2": {"test_system": "SK-MEL-2", "assay": "NCI 60 screen, SK-MEL-2 (first line)", "details": "Homo sapiens; Melanoma, SK-MEL-2 (first of two lines so named, r37)", "procedure": "as §1"}, "SK-OV-3": {"test_system": "SK-OV-3", "assay": "NCI 60 screen, SK-OV-3", "details": "Homo sapiens, Ovarian", "procedure": "as §1"}, "NCI-460": {"test_system": "NCI-460", "assay": "NCI 60 screen, NCI-460", "details": "Homo sapiens, Non-Small Cell Lung", "procedure": "as §1"}, "SF-295": {"test_system": "SF-295", "assay": "NCI 60 screen, SF-295", "details": "Homo sapiens, CNS", "procedure": "as §1"}, "NCI-H23": {"test_system": "NCI-H23", "assay": "NCI 60 screen, NCI-H23", "details": "Homo sapiens, Non-Small Cell Lung", "procedure": "as §1"}, "U251": {"test_system": "U251", "assay": "NCI 60 screen, U251", "details": "Homo sapiens, U-251, CNS", "procedure": "as §1"}, "SF-268": {"test_system": "SF-268", "assay": "NCI 60 screen, SF-268", "details": "Homo sapiens, CNS", "procedure": "as §1"}, "MALME-3M": {"test_system": "MALME-3M", "assay": "NCI 60 screen, MALME-3M", "details": "Homo sapiens, Melanoma", "procedure": "as §1"}, "IGROV1": {"test_system": "IGROV1", "assay": "NCI 60 screen, IGROV1", "details": "Homo sapiens, IGROV-1, Ovarian", "procedure": "as §1"}},
  "data": [
    {"smiles": "O=C(Cc1ccc(/C=C/C(=O)c2ncc[nH]2)cc1)Nc1ccc(Cl)cc1", "note": "[Compound 25, (E)-2-(-4 (3-(1H-imidazol-2-yl)-3-oxoprop-1-en-1-yl)phenyl)-N-(4-chlorophenyl)acetamide]", "values": [
      {"measurement": "GI50", "setting": "UACC-62", "result": 3.94, "unit": "µM"},
      {"measurement": "GI50", "setting": "SN12C", "result": 2.4, "unit": "µM"},
      {"measurement": "GI50", "setting": "MOLT-4", "result": 1.8, "unit": "µM"},
      {"measurement": "GI50", "setting": "SW-620", "result": 1.43, "unit": "µM"},
      {"measurement": "GI50", "setting": "T-47D", "result": 3.24, "unit": "µM"},
      {"measurement": "GI50", "setting": "NCI-322M", "result": 4, "unit": "µM"},
      {"measurement": "GI50", "setting": "UO-31", "result": 1.69, "unit": "µM"},
      {"measurement": "GI50", "setting": "ACHN", "result": 4.04, "unit": "µM"},
      {"measurement": "GI50", "setting": "BT-549", "result": 3.46, "unit": "µM"},
      {"measurement": "GI50", "setting": "HOP-62", "result": 3.19, "unit": "µM"},
      {"measurement": "GI50", "setting": "OVCAR-4", "result": 4.11, "unit": "µM"},
      {"measurement": "GI50", "setting": "SK-MEL-2", "result": 5.53, "unit": "µM"},
      {"measurement": "GI50", "setting": "SK-OV-3", "result": 9.74, "unit": "µM"},
      {"measurement": "GI50", "setting": "NCI-460", "result": 3.43, "unit": "µM"},
      {"measurement": "GI50", "setting": "SF-295", "result": 3.33, "unit": "µM"},
      {"measurement": "GI50", "setting": "NCI-H23", "result": 2.97, "unit": "µM"},
      {"measurement": "GI50", "setting": "U251", "result": 1.02, "unit": "µM"},
      {"measurement": "GI50", "setting": "SF-268", "result": 1.65, "unit": "µM"},
      {"measurement": "GI50", "setting": "MALME-3M", "result": 6.24, "unit": "µM"},
      {"measurement": "GI50", "setting": "IGROV1", "result": 3.59, "unit": "µM"}
    ]}
  ]
}
